Source: PubChem BioAssay AID248 (DTP/NCI, 2004)
Several values for one entry are separate records, joined by “and”; a condition that tells them apart may be missing. Identical values can stand only once. Toxic doses and inconclusive results are not listed. Rule as the data show it: active = T/C of 150% or more; inactive = T/C below 125%.

System: L1210 leukemia ip in BDF1 mice, survival T/C
Test: NCI In Vivo Anticancer Drug Screen. Data for tumor model L1210 Leukemia (intraperitoneal) in B6D2F1 (BDF1) mice
Conditions: endpoint: mean survival time, higher = longer survival
In short: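 Tumor cells were implanted, animals were treated, and survival was followed. The result divides the treated measurement by the vehicle-control measurement.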

[1] = dose: 100.0 mg/kg/injection, schedule: Q01DX009 (ip), vehicle: Klucel (hydroxypropylcellulose) (HPC)
[2] = dose: 200.0 mg/kg/injection, schedule: Q01DX009 (ip), vehicle: Klucel (hydroxypropylcellulose) (HPC)
[3] = dose: 400.0 mg/kg/injection, schedule: Q01DX009 (ip), vehicle: Klucel (hydroxypropylcellulose) (HPC)
[4] = dose: 100.0 mg/kg/injection, schedule: Q04DX003 (ip), vehicle: Klucel (hydroxypropylcellulose) (HPC)
[5] = dose: 200.0 mg/kg/injection, schedule: Q04DX003 (ip), vehicle: Klucel (hydroxypropylcellulose) (HPC)
[6] = dose: 400.0 mg/kg/injection, schedule: Q04DX003 (ip), vehicle: Klucel (hydroxypropylcellulose) (HPC)

Measured: T/C

CCOC(=O)CCN(C(=O)Nc1ccccc1)C1CCCCC1
inactive: dose: 100.0 mg/kg/injection, schedule: Q01DX Z (ip), vehicle: methylcellulose (MC) 92 % of control | dose: 200.0 mg/kg/injection, schedule: Q01DX Z (ip), vehicle: methylcellulose (MC) 97 % of control

O=C(c1ccccc1Br)C(Br)C(Br)c1ccccc1 (centres undefined)
inactive: dose: 100.0 mg/kg/injection, schedule: Q01DX009 (ip), vehicle: saline with Tween-80 98 % of control | dose: 200.0 mg/kg/injection, schedule: Q01DX009 (ip), vehicle: saline with Tween-80 93 % of control | dose: 400.0 mg/kg/injection, schedule: Q01DX009 (ip), vehicle: saline with Tween-80 91 % of control

CC1=NN(c2ccc(S(=O)(=O)O)cc2)/C(=N/N=C(N)N)C1
inactive: dose: 15.0 mg/kg/injection, schedule: Q01DX Z (ip), vehicle: carboxymethylcellulose (CMC) 96 % of control | dose: 30.0 mg/kg/injection, schedule: Q01DX Z (ip), vehicle: carboxymethylcellulose (CMC) 96 % of control | dose: 60.0 mg/kg/injection, schedule: Q01DX Z (ip), vehicle: carboxymethylcellulose (CMC) 97 % of control and 100 % of control | dose: 120.0 mg/kg/injection, schedule: Q01DX Z (ip), vehicle: carboxymethylcellulose (CMC) 100 % of control and 102 % of control | dose: 240.0 mg/kg/injection, schedule: Q01DX Z (ip), vehicle: carboxymethylcellulose (CMC) 101 % of control | dose: 480.0 mg/kg/injection, schedule: Q01DX Z (ip), vehicle: carboxymethylcellulose (CMC) 97 % of control

COc1cc(CNC(=O)NCCCl)cc(OC)c1OC
inactive: dose: 100.0 mg/kg/injection, schedule: Q01DX001 (ip), vehicle: Klucel (hydroxypropylcellulose) (HPC) 96 % of control | [1] 94 % of control | dose: 200.0 mg/kg/injection, schedule: Q01DX001 (ip), vehicle: Klucel (hydroxypropylcellulose) (HPC) 88 % of control | [2] 95 % of control | dose: 400.0 mg/kg/injection, schedule: Q01DX001 (ip), vehicle: Klucel (hydroxypropylcellulose) (HPC) 98 % of control | [3] 90 % of control

COc1ccc(C(C)=O)cc1N
inactive: [1] 98 % of control | [4] 94 % of control | [2] 104 % of control | [5] 93 % of control | [3] 116 % of control | [6] 94 % of control

O=[N+]([O-])c1ccc(Oc2cccc(C(F)(F)F)c2)nc1
inactive: [1] 101 % of control | [4] 101 % of control | [2] 103 % of control | [5] 95 % of control | [3] 107 % of control | [6] 101 % of control

O/N=C/c1nc2ccccc2[nH]1
inactive: dose: 75.0 mg/kg/injection, schedule: Q01DX001 (ip), vehicle: other 90 % of control | dose: 150.0 mg/kg/injection, schedule: Q01DX001 (ip), vehicle: other 90 % of control | dose: 300.0 mg/kg/injection, schedule: Q01DX001 (ip), vehicle: other 95 % of control

CN=C1CN(O)C(c2ccccc2)=c2cc(Cl)ccc2=N1
inactive: dose: 25.0 mg/kg/injection, schedule: Q01DX009 (ip), vehicle: acetone 96 % of control | dose: 25.0 mg/kg/injection, schedule: Q04DX003 (ip), vehicle: saline 97 % of control | dose: 50.0 mg/kg/injection, schedule: Q01DX009 (ip), vehicle: acetone 90 % of control | dose: 50.0 mg/kg/injection, schedule: Q04DX003 (ip), vehicle: saline 97 % of control | dose: 100.0 mg/kg/injection, schedule: Q01DX001 (ip), vehicle: saline 92 % of control | dose: 100.0 mg/kg/injection, schedule: Q01DX009 (ip), vehicle: acetone 102 % of control | dose: 100.0 mg/kg/injection, schedule: Q04DX003 (ip), vehicle: saline 92 % of control | dose: 200.0 mg/kg/injection, schedule: Q01DX001 (ip), vehicle: saline 96 % of control | dose: 200.0 mg/kg/injection, schedule: Q01DX009 (ip), vehicle: acetone 97 % of control | dose: 200.0 mg/kg/injection, schedule: Q04DX003 (ip), vehicle: saline 97 % of control

Cc1ccc(C(C)C)cc1NC(=O)c1c(Cl)c(Cl)c(Cl)c(Cl)c1C(=O)O
inactive: dose: 25.0 mg/kg/injection, schedule: Q01DX009 (ip), vehicle: Klucel (hydroxypropylcellulose) (HPC) 108 % of control | dose: 50.0 mg/kg/injection, schedule: Q01DX009 (ip), vehicle: Klucel (hydroxypropylcellulose) (HPC) 91 % of control | [1] 103 % of control and 90 % of control

Nc1ncnc2c1ccn2Cc1ccccc1
inactive: dose: 50.0 mg/kg/injection, schedule: Q01DX001 (ip), vehicle: other 111 % of control | dose: 100.0 mg/kg/injection, schedule: Q01DX001 (ip), vehicle: other 97 % of control | dose: 200.0 mg/kg/injection, schedule: Q01DX001 (ip), vehicle: other 97 % of control | dose: 400.0 mg/kg/injection, schedule: Q01DX001 (ip), vehicle: other 103 % of control
